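Tested at 5 concentrations; 48 h exposure; 96-well plates; endpoints linearly interpolated, else capped at highest concentration. At the GI50, growth is halved.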 Calls of active or inactive are those of the source. No stated cut-off is given here; in the data, active = GI50 up to about 1.1 µM and inactive = higher.
Legend:
Test in all cases: DTP human tumour cell line panel, 48 h
786-0 = test system: 786-0
A498 = test system: A498
A549 = test system: A549
ACHN = test system: ACHN
BT-549 = test system: BT-549
CAKI-1 = test system: CAKI-1
CCRF-CEM = test system: CCRF-CEM
COLO 205 = test system: COLO 205
DU-145 = test system: DU-145
EKVX = test system: EKVX
HCC 2998 = test system: HCC 2998
HCT-116 = test system: HCT-116
HCT-15 = test system: HCT-15
HOP-62 = test system: HOP-62
HOP-92 = test system: HOP-92
HT-29 = test system: HT-29
Hs-578T = test system: Hs-578T
IGROV-1 = test system: IGROV-1
K562 = test system: K562
KM12 = test system: KM12
LOX IMVI = test system: LOX IMVI
M14 = test system: M14
MCF7 = test system: MCF7
MDA-MB-231 = test system: MDA-MB-231
MDA-MB-435 = test system: MDA-MB-435
MOLT-4 = test system: MOLT-4
Malme-3M = test system: Malme-3M
NCI-H226 = test system: NCI-H226
NCI-H23 = test system: NCI-H23
NCI-H460 = test system: NCI-H460
NCI-H522 = test system: NCI-H522
NCI/ADR-RES = test system: NCI/ADR-RES
OVCAR-3 = test system: OVCAR-3
OVCAR-4 = test system: OVCAR-4
OVCAR-5 = test system: OVCAR-5
OVCAR-8 = test system: OVCAR-8
PC-3 = test system: PC-3
RPMI-8226 = test system: RPMI-8226
RXF 393 = test system: RXF 393
SF-268 = test system: SF-268
SF-295 = test system: SF-295
SF-539 = test system: SF-539
SK-MEL-28 = test system: SK-MEL-28
SK-MEL-2 = test system: SK-MEL-2
SK-MEL-5 = test system: SK-MEL-5
SK-OV-3 = test system: SK-OV-3
SN12C = test system: SN12C
SNB-19 = test system: SNB-19
SNB-75 = test system: SNB-75
SR = test system: SR
SW-620 = test system: SW-620
T47D = test system: T47D
TK-10 = test system: TK-10
U-251 = test system: U-251
UACC-257 = test system: UACC-257
UACC-62 = test system: UACC-62
HL-60 = test system: HL-60
MDA-N = test system: MDA-N
UO-31 = test system: UO-31

## NC(=S)N/N=C1\CCCC1C(O)(C(F)(F)Cl)C(F)(F)Cl (stereo not drawn)
786-0
  GI50: > 10 µM (inactive)
A498
  GI50: > 10 µM (inactive)
A549
  GI50: > 10 µM (inactive)
ACHN
  GI50: > 10 µM (inactive)
BT-549
  GI50: > 10 µM (inactive)
CAKI-1
  GI50: > 10 µM (inactive)
CCRF-CEM
  GI50: > 10 µM (inactive)
COLO 205
  GI50: > 10 µM (inactive)
DU-145
  GI50: > 10 µM (inactive)
EKVX
  GI50: > 10 µM (inactive)
HCC 2998
  GI50: > 10 µM (inactive)
HCT-116
  GI50: > 10 µM (inactive)
HCT-15
  GI50: > 10 µM
HOP-62
  GI50: > 10 µM (inactive)
HOP-92
  GI50: > 10 µM (inactive)
HT-29
  GI50: > 10 µM (inactive)
Hs-578T
  GI50: > 10 µM (inactive)
IGROV-1
  GI50: > 10 µM (inactive)
K562
  GI50: > 10 µM (inactive)
KM12
  GI50: > 10 µM (inactive)
LOX IMVI
  GI50: > 10 µM (inactive)
M14
  GI50: > 10 µM (inactive)
MCF7
  GI50: > 10 µM (inactive)
MDA-MB-231
  GI50: > 10 µM (inactive)
MDA-MB-435
  GI50: > 10 µM (inactive)
MOLT-4
  GI50: > 10 µM (inactive)
Malme-3M
  GI50: > 10 µM (inactive)
NCI-H226
  GI50: > 10 µM (inactive)
NCI-H23
  GI50: > 10 µM (inactive)
NCI-H460
  GI50: > 10 µM (inactive)
NCI-H522
  GI50: > 10 µM (inactive)
NCI/ADR-RES
  GI50: > 10 µM (inactive)
OVCAR-3
  GI50: > 10 µM (inactive)
OVCAR-4
  GI50: > 10 µM (inactive)
OVCAR-5
  GI50: > 10 µM (inactive)
OVCAR-8
  GI50: > 10 µM (inactive)
PC-3
  GI50: > 10 µM (inactive)
RPMI-8226
  GI50: > 10 µM (inactive)
RXF 393
  GI50: > 10 µM (inactive)
SF-268
  GI50: > 10 µM (inactive)
SF-295
  GI50: > 10 µM (inactive)
SF-539
  GI50: > 10 µM (inactive)
SK-MEL-28
  GI50: > 10 µM (inactive)
SK-MEL-2
  GI50: > 10 µM (inactive)
SK-MEL-5
  GI50: 2.01 µM (inactive)
SK-OV-3
  GI50: > 10 µM (inactive)
SN12C
  GI50: > 10 µM (inactive)
SNB-19
  GI50: > 10 µM (inactive)
SNB-75
  GI50: > 10 µM (inactive)
SR
  GI50: > 10 µM (inactive)
SW-620
  GI50: > 10 µM (inactive)
T47D
  GI50: > 10 µM (inactive)
TK-10
  GI50: > 10 µM (inactive)
U-251
  GI50: > 10 µM (inactive)
UACC-257
  GI50: > 10 µM (inactive)
UACC-62
  GI50: 8.63 µM (inactive)

## COC(=O)[C@H](Cc1ccccc1)NC(=O)N1CCCN(C(=O)N[C@@H](Cc2ccccc2)C(=O)OC)CCCN(C(=O)N[C@@H](Cc2ccccc2)C(=O)OC)CCC1
786-0
  GI50: 17.5 µM (inactive)
A498
  GI50: 19.9 µM (inactive)
A549
  GI50: 27.9 µM (inactive)
ACHN
  GI50: 17.1 µM (inactive)
BT-549
  GI50: 31.1 µM (inactive)
CAKI-1
  GI50: 25.5 µM (inactive)
CCRF-CEM
  GI50: 32.5 µM (inactive)
COLO 205
  GI50: 18 µM (inactive)
DU-145
  GI50: 18.4 µM (inactive)
EKVX
  GI50: 21.8 µM (inactive)
HCC 2998
  GI50: 18.1 µM (inactive)
HCT-116
  GI50: 20.2 µM (inactive)
HCT-15
  GI50: 27.8 µM
HL-60
  GI50: 32.8 µM (inactive)
HOP-62
  GI50: 16.6 µM (inactive)
HOP-92
  GI50: 16 µM (inactive)
HT-29
  GI50: 16.8 µM (inactive)
Hs-578T
  GI50: 20.7 µM (inactive)
IGROV-1
  GI50: 16.4 µM (inactive)
K562
  GI50: 61.1 µM (inactive)
KM12
  GI50: 28.9 µM (inactive)
LOX IMVI
  GI50: 15.3 µM (inactive)
M14
  GI50: 18 µM (inactive)
MCF7
  GI50: 18.2 µM (inactive)
MDA-MB-435
  GI50: 20.6 µM (inactive)
MDA-N
  GI50: 26.1 µM (inactive)
MOLT-4
  GI50: 17.7 µM (inactive)
Malme-3M
  GI50: 17.2 µM (inactive)
NCI-H226
  GI50: 16.5 µM (inactive)
NCI-H23
  GI50: 27.2 µM (inactive)
NCI-H460
  GI50: 27.7 µM (inactive)
NCI-H522
  GI50: 18.9 µM (inactive)
NCI/ADR-RES
  GI50: 30.8 µM (inactive)
OVCAR-3
  GI50: 16.9 µM (inactive)
OVCAR-4
  GI50: 20.7 µM (inactive)
OVCAR-5
  GI50: 15.7 µM (inactive)
OVCAR-8
  GI50: 20.7 µM (inactive)
PC-3
  GI50: 15.8 µM (inactive)
RPMI-8226
  GI50: 32.1 µM (inactive)
RXF 393
  GI50: 16.9 µM (inactive)
SF-268
  GI50: 17.5 µM (inactive)
SF-295
  GI50: 17.8 µM (inactive)
SK-MEL-28
  GI50: 19.4 µM (inactive)
SK-MEL-2
  GI50: 15 µM (inactive)
SK-MEL-5
  GI50: 19.4 µM (inactive)
SK-OV-3
  GI50: 22.8 µM (inactive)
SN12C
  GI50: 19.6 µM (inactive)
SNB-19
  GI50: 27.7 µM (inactive)
SNB-75
  GI50: 16.1 µM (inactive)
SW-620
  GI50: 19.5 µM (inactive)
T47D
  GI50: 17.3 µM (inactive)
TK-10
  GI50: 22.3 µM (inactive)
U-251
  GI50: 16.7 µM (inactive)
UACC-257
  GI50: 18.2 µM (inactive)
UACC-62
  GI50: 16.2 µM (inactive)
UO-31
  GI50: 15.9 µM (inactive)

## CO/N=C(\C(=O)[N-]n1cn[n+](CC(=O)OC(C)(C)C)c1)c1csc(NC(c2ccccc2)(c2ccccc2)c2ccccc2)n1
786-0
  GI50: > 10 µM (inactive)
A498
  GI50: > 10 µM (inactive)
A549
  GI50: > 10 µM (inactive)
ACHN
  GI50: > 10 µM (inactive)
BT-549
  GI50: > 10 µM (inactive)
CAKI-1
  GI50: > 10 µM (inactive)
CCRF-CEM
  GI50: > 10 µM (inactive)
COLO 205
  GI50: > 10 µM (inactive)
DU-145
  GI50: > 10 µM (inactive)
EKVX
  GI50: > 10 µM (inactive)
HCC 2998
  GI50: > 10 µM (inactive)
HCT-116
  GI50: > 10 µM (inactive)
HCT-15
  GI50: > 10 µM
HL-60
  GI50: > 10 µM (inactive)
HOP-62
  GI50: > 10 µM (inactive)
HOP-92
  GI50: > 10 µM (inactive)
HT-29
  GI50: > 10 µM (inactive)
Hs-578T
  GI50: > 10 µM (inactive)
IGROV-1
  GI50: > 10 µM (inactive)
K562
  GI50: > 10 µM (inactive)
KM12
  GI50: > 10 µM (inactive)
LOX IMVI
  GI50: > 10 µM (inactive)
M14
  GI50: > 10 µM (inactive)
MCF7
  GI50: > 10 µM (inactive)
MDA-N
  GI50: > 10 µM (inactive)
MOLT-4
  GI50: > 10 µM (inactive)
Malme-3M
  GI50: > 10 µM (inactive)
NCI-H226
  GI50: > 10 µM (inactive)
NCI-H23
  GI50: > 10 µM (inactive)
NCI-H460
  GI50: > 10 µM (inactive)
NCI-H522
  GI50: > 10 µM (inactive)
NCI/ADR-RES
  GI50: > 10 µM (inactive)
OVCAR-3
  GI50: > 10 µM (inactive)
OVCAR-4
  GI50: > 10 µM (inactive)
OVCAR-5
  GI50: > 10 µM (inactive)
OVCAR-8
  GI50: > 10 µM (inactive)
PC-3
  GI50: > 10 µM (inactive)
RPMI-8226
  GI50: > 10 µM (inactive)
RXF 393
  GI50: > 10 µM (inactive)
SF-268
  GI50: > 10 µM (inactive)
SF-295
  GI50: > 10 µM (inactive)
SF-539
  GI50: > 10 µM (inactive)
SK-MEL-28
  GI50: > 10 µM (inactive)
SK-MEL-2
  GI50: > 10 µM (inactive)
SK-MEL-5
  GI50: > 10 µM (inactive)
SK-OV-3
  GI50: > 10 µM (inactive)
SN12C
  GI50: > 10 µM (inactive)
SNB-19
  GI50: > 10 µM (inactive)
SNB-75
  GI50: > 10 µM (inactive)
SR
  GI50: > 10 µM (inactive)
SW-620
  GI50: > 10 µM (inactive)
T47D
  GI50: > 10 µM (inactive)
TK-10
  GI50: > 10 µM (inactive)
U-251
  GI50: > 10 µM (inactive)
UACC-257
  GI50: > 10 µM (inactive)
UO-31
  GI50: > 10 µM (inactive)

Reference: ChEMBL document CHEMBL1201862, “PubChem BioAssay data set” (2004)
